How the values were obtained:
LOLRI = assay: Post-emergence herbicidal effect, greenhouse pot test; assay type: in vivo, Lolium rigidum; details: 320 g/ha; for pest or weed control at 320 g/ha: Lolium rigidum, 504 h, read-out: Post-emergence effect against LOLRI in %
Method in brief: (§1)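 Weeds sown in sandy loam, greenhouse-grown 2–3 weeks, then sprayed at one-leaf stage with WP or EC formulations in water plus 0.5% additive at 600 l/ha. Rates 20 to 320 g/ha. Visual rating after about 3 weeks versus untreated controls (100% = plants dead, 0% = like control).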

MATIN = assay: as above; assay type: in vivo, Tripleurospermum inodorum
Method in brief: as §1

ZEAMX = assay: Post-emergence herbicidal effect and crop plant compatibility, greenhouse pot test; assay type: in vivo, Zea mays; details: 20 g/ha, one-leaf stage, rated visually after about 3 weeks vs untreated controls
Method in brief: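 Sandy loam pots, greenhouse. One-leaf stage (2–3 wk after sowing) foliar spray; WP/EC in water + 0.5% additive, 600 l/ha; 20–320 g/ha. Visual score ~3 wk, 0–100% vs untreated.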

VERPE = assay: Post-emergence herbicidal effect, greenhouse pot test; assay type: in vivo, Veronica persica
Method in brief: as §1

ABUTH = assay: as above; assay type: in vivo, Abutilon theophrasti; details: visual rating about 3 weeks after treatment; for pest or weed control at 320 g/ha: Abutilon theophrasti, 504 h, read-out: Post-emergence effect against ABUTH
Method in brief: as §1

TRZAS = assay: Post-emergence herbicidal effect and crop plant compatibility, greenhouse pot test; assay type: in vivo, Triticum aestivum
Text: • ALOMY: Alopecurus myosuroides SETVI: Setaria viridis • AVEFA: Avena fatua POLCO: Fallopia convolvulus • AMARE: Amaranthus retroflexus ECHCG: Echinochloa crus-galli • LOLRJ: Lolium rigidum STEME: Stellaria media • VERPE: Veronica persica MATIN: Tripleurospermum inodorum • DIGSA: Digitaria sanguinalis ABUTH: Abutylon threophrasti • TRZAS: Triticum aestivum VIOTR: Viola tricolor • BRSNW: Brassica napus ZEAMX: Zea mays • PHBPU: Ipomoea purpurea GLXMA: Glycine max • ORYSA: Oryza sativa HORMU: Hordeum murinum
Seeds of monocotyledonous and dicotyledonous weeds and crop plants are placed in sandy loam in plastic or organic planting pots, covered with soil and cultivated in a greenhouse under controlled growth conditions. 2 to 3 weeks after sowing, the trial plants are treated at the one-leaf stage. The compounds of the invention, formulated in the form of wettable powders (WP) or as emulsion concentrates (EC), are then sprayed onto the green parts of the plants as aqueous suspension or emulsion with addition of 0.5% additive at a water application rate of 600 l/ha (converted). After the test plants have been kept in the greenhouse under optimum growth conditions for about 3 weeks, the activity of the preparations is rated visually in comparison to untreated controls. For example, 100% activity=the plants have died, 0% activity=like control plants.
Tables 20a to 38c below show the effects/crop compatibilities of selected compounds of the general formula (I) on various harmful plants at an application rate corresponding to 20 to 320 g/ha, which were obtained by the trial procedure specified above.

ECHCG = assay: Post-emergence herbicidal effect, greenhouse pot test; assay type: in vivo, Echinochloa crus-galli; details: for pest or weed control at 320 g/ha: Echinochloa crus-galli, 504 h, read-out: Post-emergence effect against ECHCG in %
Method in brief: as §1

AMARE = assay: as above; assay type: in vivo, Amaranthus retroflexus; details: visual rating about 3 weeks after treatment
Method in brief: as §1

DIGSA = assay: as above; assay type: in vivo, Digitaria sanguinalis; details: 320 g/ha, visual rating about 3 weeks after treatment
Method in brief: as §1

SETVI = assay: as above; assay type: in vivo, Setaria viridis; details: 320 g/ha; for pest or weed control at 320 g/ha: Setaria viridis, 504 h, read-out: Post-emergence effect against SETVI in %
Method in brief: as §1

PHBPU = assay: as above; assay type: in vivo, Ipomoea purpurea
Method in brief: as §1

VIOTR = assay: as above; assay type: in vivo, Viola tricolor
Method in brief: as §1

AVEFA = assay: as above; assay type: in vivo, Avena fatua; details: 320 g/ha, visual rating about 3 weeks after treatment
Method in brief: as §1

ALOMY = assay: as above; assay type: in vivo, Alopecurus myosuroides; details: Alopecurus myosuroides, 504 h, 320 g/ha, visual rating about 3 weeks after treatment, read-out: Post-emergence effect against ALOMY
Method in brief: as §1

POLCO = assay: as above; assay type: in vivo, Fallopia convolvulus; details: Fallopia convolvulus, 504 h, read-out: Post-emergence effect against POLCO in %
Method in brief: as §1

[1] = Veronica persica, 504 h, 320 g/ha, read-out: Post-emergence effect against VERPE in %
[2] = 20 g/ha, one-leaf stage, rated visually after about 3 weeks vs untreated controls
[3] = Amaranthus retroflexus, 504 h, 320 g/ha, read-out: Post-emergence effect against AMARE
[4] = Ipomoea purpurea, 504 h, 320 g/ha, read-out: Post-emergence effect against PHBPU in %
[5] = Viola tricolor, 504 h, 320 g/ha, read-out: Post-emergence effect against VIOTR in %

With `COC(Oc1nn(-c2ccccc2F)c(-c2ccc(F)nc2)c1Br)C(=O)O` (stereo not shown) [Example I-25] the pest or weed control at 320 g/ha (LOLRI) was 90%, the pest or weed control at 320 g/ha (MATIN; Tripleurospermum inodorum, 504 h, 320 g/ha, read-out: Post-emergence effect against MATIN in %) was 80% and the “Post-emergence effect at 20 g/ha against ZEAMX in %” value (ZEAMX) was 20%. For the same compound, the pest or weed control at 80 g/ha (VERPE; Veronica persica, 504 h, 80 g/ha, read-out: Post-emergence effect against VERPE in %) was 80%, the pest or weed control at 320 g/ha (VERPE; [1]) was 90% and the pest or weed control at 320 g/ha (ABUTH; 320 g/ha) was 80%. For the same compound, the “Post-emergence effect at 20 g/ha against TRZAS in %” value (TRZAS; [2]) was 10%, the pest or weed control at 320 g/ha (ECHCG; 320 g/ha) was 80% and the pest or weed control at 80 g/ha (AMARE; Amaranthus retroflexus, 504 h, 80 g/ha, read-out: Post-emergence effect against AMARE) was 80%. For the same compound, the pest or weed control at 320 g/ha (AMARE; [3]) was 90%, the pest or weed control at 320 g/ha (DIGSA; Digitaria sanguinalis, 504 h, read-out: Post-emergence effect against DIGSA) was 90% and the pest or weed control at 320 g/ha (SETVI) was 90%. It also gave a pest or weed control at 320 g/ha (PHBPU; [4]) of 90% and a pest or weed control at 320 g/ha (VIOTR; [5]) of 80%.
With `COC(=O)C(OC)Oc1nn(-c2ncccc2F)c(-c2ccc(F)nc2)c1I` (stereo not shown) [Example I-39] the pest or weed control at 320 g/ha (LOLRI) was 100%, the plant injury at 20 g/ha (ZEAMX; Zea mays, 504 h, read-out: Post-emergence effect at 20 g/ha against ZEAMX in %) was 20% and the pest or weed control at 320 g/ha (AVEFA; Avena fatua, 504 h, read-out: Post-emergence effect against AVEFA) was 100%. The pest or weed control at 320 g/ha (VERPE; [1]) was 90%, the pest or weed control at 320 g/ha (ALOMY) was 100% and the pest or weed control at 320 g/ha (ABUTH; 320 g/ha) was 90%. The percent crop injury (phytotoxicity) to wheat, post-emergence at 20 g/ha (TRZAS; Triticum aestivum, 504 h, 20 g/ha, one-leaf stage, rated visually after about 3 weeks vs untreated controls, read-out: Post-emergence effect at 20 g/ha against TRZAS in %) was 0%, the pest or weed control at 320 g/ha (ECHCG; 320 g/ha) was 90% and the pest or weed control at 320 g/ha (AMARE; [3]) was 80%. For the same compound, the pest or weed control at 320 g/ha (SETVI) was 90%, the pest or weed control at 80 g/ha (PHBPU; Ipomoea purpurea, 504 h, 80 g/ha, read-out: Post-emergence effect against PHBPU in %) was 90% and the pest or weed control at 320 g/ha (PHBPU; [4]) was 90%. The pest or weed control at 80 g/ha (VIOTR; Viola tricolor, 504 h, 80 g/ha, read-out: Post-emergence effect against VIOTR in %) was 80%, the pest or weed control at 320 g/ha (VIOTR; [5]) was 90% and the pest or weed control at 80 g/ha (POLCO; 80 g/ha) was 90%. It also gave a pest or weed control at 320 g/ha (POLCO; 320 g/ha) of 90%.
`COC(=O)C(OC)Oc1nn(-c2cccc(C)c2F)c(-c2ccc(F)nc2)c1Br` (stereo not shown) [Example I-114] was tested, and the “Post-emergence effect against LOLRI in %” value (LOLRI) was 80%, the “Post-emergence effect against MATIN in %” value (MATIN; 80 g/ha) was 80% and the “Post-emergence effect against MATIN in %” value (MATIN; 320 g/ha) was 90%. For the same compound, the “Post-emergence effect against AVEFA” value (AVEFA) was 80%, the “Post-emergence effect against VERPE in %” value (VERPE; 20 g/ha) was 80% and the “Post-emergence effect against VERPE in %” value (VERPE; 80 g/ha) was 80%. For the same compound, the “Post-emergence effect against VERPE in %” value (VERPE; 320 g/ha) was 90%, the “Post-emergence effect against ABUTH” value (ABUTH; 80 g/ha) was 80% and the “Post-emergence effect against ABUTH” value (ABUTH; 320 g/ha) was 90%. The “Post-emergence effect at 20 g/ha against TRZAS in %” value (TRZAS; [2]) was 0%, the “Post-emergence effect against TRZAS” value (TRZAS; 80 g/ha, visual rating about 3 weeks after treatment, crop plant) was 20% and the “Post-emergence effect against ECHCG” value (ECHCG; 20 g/ha, visual rating about 3 weeks after treatment) was 80%. For the same compound, the “Post-emergence effect against ECHCG in %” value (ECHCG; 80 g/ha) was 90%, the “Post-emergence effect against ECHCG in %” value (ECHCG; 320 g/ha) was 100% and the “Post-emergence effect against AMARE” value (AMARE; 20 g/ha) was 80%. For the same compound, the “Post-emergence effect against AMARE” value (AMARE; 80 g/ha) was 80%, the “Post-emergence effect against AMARE” value (AMARE; 320 g/ha) was 90% and the “Post-emergence effect against DIGSA” value (DIGSA) was 80%. For the same compound, the “Post-emergence effect against SETVI in %” value (SETVI) was 90%, the “Post-emergence effect against PHBPU in %” value (PHBPU; 80 g/ha) was 80% and the “Post-emergence effect against PHBPU in %” value (PHBPU; 320 g/ha) was 90%. The “Post-emergence effect against VIOTR in %” value (VIOTR; 320 g/ha) was 90%.

Source: US20240391862A1, “(1,4,5-TRISUBSTITUTED-1H-PYRAZOL-3-YL)OXY-2-ALKOXY ALKYL ACIDS AND THEIR DERIVATIVES, THEIR SALTS AND THEIR USE AS HERBICIDAL AGENTS” (Bayer AKtiengesellschaft, priority 2021, published 2024)
